# Experimental data reported in patent EP0024842A1, “Methyl (5-(2-thienylhydroxymethyl)-1H-benzimidazol-2-yl) carbamate, process for its preparation and compositions containing it” (priority 1979, dated 1981).
# Columns and labels:
# [1] = system: pregnant Sprague-Dawley rats; assay: Embryotoxic activity in pregnant rats (antimitotic test according to Delatour and Richard), dose series; settings: orally; for Embryo-toxicity %: daily from the 8th to the 15th day of gestation; for # Fetus: 8th to 15th day of gestation
# [2] = system: rats; assay: Embryotoxic effect in rats, 'another test' at equimolar doses; format: in vivo, rat
compound,measurement,setting,value
"COC(=O)Nc1nc2ccc(C(O)c3cccs3)cc2[nH]1 (racemic) [I, methyl [5-(2-thienylhydroxymethyl)-lH-benzimidazol-2-yl]-carbamate]",Embryo-toxicity %,[1]; 3.03 mg/kg/day,12.06%
same,Embryo-toxicity %,[1]; 5.05 mg/kg/day,100%
same,% (embryotoxic effect),[2]; Oral Dose Per Day 5.05 mg/kg,100%
"COC(=O)Nc1nc2ccc(C(=O)c3cccs3)cc2[nH]1 [II, Methyl 5-[(2-thenoyl)-lH-benzimidazol-2-yl]-carbamate]",# Fetus,"[1]; 7.5 mg/kg/day, 40 implantations",0
same,Embryo-toxicity %,[1]; 7.5 mg/kg/day,100%
same,# Fetus,"[1]; 15 mg/kg/day, 30 implantations",0
same,Embryo-toxicity %,[1]; 15 mg/kg/day,100%
same,# Fetus,"[1]; 30 mg/kg/day, 28 implantations",0
same,Embryo-toxicity %,[1]; 30 mg/kg/day,100%
same,% (embryotoxic effect),[2]; Oral Dose Per Day 5.02 mg/kg,3.5%
same,Foet./ Implant,[2]; Oral Dose Per Day 5.02 mg/kg,55/57
